From ChEMBL document CHEMBL4334508, “Oleanolic Acid Derivatives as Potential Inhibitors of HIV-1 Protease” (J Nat Prod, 2019) come the findings set out here.

In the assay the target is Protease (Human immunodeficiency virus 1, UniProt Q9YQ12). Description: Inhibition of HIV1 protease expressed in Escherichia coli using Abz-Ala-Arg-Val-Nle-Tyr(NO2)-Glu-Ala-Nle-NH2 peptide as substrate by FRET assay.
Sequence of Protease (Q9YQ12 whole entry): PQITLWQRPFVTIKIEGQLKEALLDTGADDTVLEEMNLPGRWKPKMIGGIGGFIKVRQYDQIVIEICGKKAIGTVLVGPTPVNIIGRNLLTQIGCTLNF
By IC50 is commonly meant the point on the concentration scale where inhibition reaches its midpoint. For `CCCCCCCCCCCC(=O)O[C@H]1CC[C@]2(C)[C@H]3CC=C4[C@@H]5CC(C)(C)CC[C@]5(C(=O)NCCCC(=O)N[C@@H](C)C(=O)O)CC[C@@]4(C)[C@]3(C)CC[C@H]2C1(C)C`, the IC50 is more than 50 µM.

In turn, `C[C@H](NC(=O)CCCCCNC(=O)[C@]12CCC(C)(C)C[C@H]1C1=CC[C@@H]3[C@@]4(C)CC[C@H](OC(=O)CC(C)(C)CC(=O)O)C(C)(C)[C@@H]4CC[C@@]3(C)[C@]1(C)CC2)C(=O)O` yielded an IC50 of 24.1 µM. Under `C[C@H](NC(=O)CCCCCCCCCCNC(=O)[C@]12CCC(C)(C)C[C@H]1C1=CC[C@@H]3[C@@]4(C)CC[C@H](OC(=O)c5ccccc5C(=O)O)C(C)(C)[C@@H]4CC[C@@]3(C)[C@]1(C)CC2)C(=O)O` stands 1 µM; under `CC(C)(CC(=O)O)CC(=O)O[C@H]1CC[C@]2(C)[C@H]3CC=C4[C@@H]5CC(C)(C)CC[C@]5(C(=O)NCCCCCC(=O)NCC(=O)O)CC[C@@]4(C)[C@]3(C)CC[C@H]2C1(C)C`, 38.8 µM.

`C[C@H](NC(=O)CCCCCCCCCCNC(=O)[C@]12CCC(C)(C)C[C@H]1C1=CC[C@@H]3[C@@]4(C)CC[C@H](OC(=O)CC(C)(C)CC(=O)O)C(C)(C)[C@@H]4CC[C@@]3(C)[C@]1(C)CC2)C(=O)O` came in with an IC50 of more than 50 µM. Consider `C[C@H](NC(=O)CCCCCCCCCCNC(=O)[C@]12CCC(C)(C)C[C@H]1C1=CC[C@@H]3[C@@]4(C)CC[C@H](OC(=O)c5ccccc5)C(C)(C)[C@@H]4CC[C@@]3(C)[C@]1(C)CC2)C(=O)O`, for which the IC50 was more than 50 µM. In the case of `C[C@H](NC(=O)CCCNC(=O)[C@]12CCC(C)(C)C[C@H]1C1=CC[C@@H]3[C@@]4(C)CC[C@H](OC(=O)CCCC(=O)O)C(C)(C)[C@@H]4CC[C@@]3(C)[C@]1(C)CC2)C(=O)O`, the IC50 amounted to 6.6 µM. As for `CCCCCC(=O)O[C@H]1CC[C@]2(C)[C@H]3CC=C4[C@@H]5CC(C)(C)CC[C@]5(C(=O)NCCCCCC(=O)N[C@@H](C)C(=O)O)CC[C@@]4(C)[C@]3(C)CC[C@H]2C1(C)C`, the figure is more than 50 µM; as for `CC(=O)O[C@H]1CC[C@]2(C)[C@H]3CC=C4[C@@H]5CC(C)(C)CC[C@]5(C(=O)NCCCCCCCCCCC(=O)NCC(=O)O)CC[C@@]4(C)[C@]3(C)CC[C@H]2C1(C)C`, more than 50 µM. Under `CC(=O)O[C@H]1CC[C@]2(C)[C@H]3CC=C4[C@@H]5CC(C)(C)CC[C@]5(C(=O)NCCCC(=O)N[C@H](C(=O)O)C(C)C)CC[C@@]4(C)[C@]3(C)CC[C@H]2C1(C)C` stands more than 50 µM. Under `CCCCCCCCCCCC(=O)O[C@H]1CC[C@]2(C)[C@H]3CC=C4[C@@H]5CC(C)(C)CC[C@]5(C(=O)NCCCCCCCCCCC(=O)NCC(=O)O)CC[C@@]4(C)[C@]3(C)CC[C@H]2C1(C)C` stands more than 50 µM. `CCC(=O)O[C@H]1CC[C@]2(C)[C@H]3CC=C4[C@@H]5CC(C)(C)CC[C@]5(C(=O)NCCCCCC(=O)N[C@@H](C)C(=O)O)CC[C@@]4(C)[C@]3(C)CC[C@H]2C1(C)C` registered an IC50 of 31 µM. On to `CC(C)(CC(=O)O)CC(=O)O[C@H]1CC[C@]2(C)[C@H]3CC=C4[C@@H]5CC(C)(C)CC[C@]5(C(=O)NCCCCCCCCCCC(=O)NCC(=O)O)CC[C@@]4(C)[C@]3(C)CC[C@H]2C1(C)C`, for which the IC50 is more than 50 µM. Under `C[C@H](NC(=O)CCCCCNC(=O)[C@]12CCC(C)(C)C[C@H]1C1=CC[C@@H]3[C@@]4(C)CC[C@H](OC(=O)c5ccccc5)C(C)(C)[C@@H]4CC[C@@]3(C)[C@]1(C)CC2)C(=O)O` stands more than 50 µM; under `CCCCCCCCCCCC(=O)O[C@H]1CC[C@]2(C)[C@H]3CC=C4[C@@H]5CC(C)(C)CC[C@]5(C(=O)NCCCCCC(=O)N[C@@H](C)C(=O)O)CC[C@@]4(C)[C@]3(C)CC[C@H]2C1(C)C`, more than 50 µM; under `CC(=O)O[C@H]1CC[C@]2(C)[C@H]3CC=C4[C@@H]5CC(C)(C)CC[C@]5(C(=O)NCCCCCCCCCCC(=O)N[C@@H](C)C(=O)O)CC[C@@]4(C)[C@]3(C)CC[C@H]2C1(C)C`, more than 50 µM.

On to `CC(=O)O[C@H]1CC[C@]2(C)[C@H]3CC=C4[C@@H]5CC(C)(C)CC[C@]5(C(=O)NCCCCCC(=O)N[C@@H](C)C(=O)O)CC[C@@]4(C)[C@]3(C)CC[C@H]2C1(C)C`, for which half-maximal inhibition (IC50) was put at 47.1 µM. As for `C[C@H](NC(=O)CCCNC(=O)[C@]12CCC(C)(C)C[C@H]1C1=CC[C@@H]3[C@@]4(C)CC[C@H](OC(=O)c5ccccc5)C(C)(C)[C@@H]4CC[C@@]3(C)[C@]1(C)CC2)C(=O)O`, the figure is 47.1 µM; as for `C[C@H](NC(=O)CCCCCNC(=O)[C@]12CCC(C)(C)C[C@H]1C1=CC[C@@H]3[C@@]4(C)CC[C@H](OC(=O)CCC(=O)O)C(C)(C)[C@@H]4CC[C@@]3(C)[C@]1(C)CC2)C(=O)O`, 40.2 µM; as for `CCCCCCCCCCCC(=O)O[C@H]1CC[C@]2(C)[C@H]3CC=C4[C@@H]5CC(C)(C)CC[C@]5(C(=O)NCCCCCCCCCCC(=O)N[C@@H](C)C(=O)O)CC[C@@]4(C)[C@]3(C)CC[C@H]2C1(C)C`, more than 50 µM. Regarding `C[C@H](NC(=O)CCCCCNC(=O)[C@]12CCC(C)(C)C[C@H]1C1=CC[C@@H]3[C@@]4(C)CC[C@H](OC(=O)CCCC(=O)O)C(C)(C)[C@@H]4CC[C@@]3(C)[C@]1(C)CC2)C(=O)O`, the midpoint of inhibition, the IC50, lay at 38.8 µM. As for `CCCC(=O)O[C@H]1CC[C@]2(C)[C@H]3CC=C4[C@@H]5CC(C)(C)CC[C@]5(C(=O)NCCCCCCCCCCC(=O)N[C@@H](C)C(=O)O)CC[C@@]4(C)[C@]3(C)CC[C@H]2C1(C)C`, the figure is more than 50 µM; as for `CC1(C)CC[C@]2(C(=O)NCCCCCCCCCCC(=O)NCC(=O)O)CC[C@]3(C)C(=CC[C@@H]4[C@@]5(C)CC[C@H](OC(=O)c6ccccc6)C(C)(C)[C@@H]5CC[C@]43C)[C@@H]2C1`, more than 50 µM. As for `CCCC(=O)O[C@H]1CC[C@]2(C)[C@H]3CC=C4[C@@H]5CC(C)(C)CC[C@]5(C(=O)NCCCC(=O)N[C@@H](C)C(=O)O)CC[C@@]4(C)[C@]3(C)CC[C@H]2C1(C)C`, the figure is more than 50 µM; as for `CC(=O)O[C@H]1CC[C@]2(C)[C@H]3CC=C4[C@@H]5CC(C)(C)CC[C@]5(C(=O)NCCCC(=O)N[C@@H](C)C(=O)O)CC[C@@]4(C)[C@]3(C)CC[C@H]2C1(C)C`, more than 50 µM. Under `CCCC(=O)O[C@H]1CC[C@]2(C)[C@H]3CC=C4[C@@H]5CC(C)(C)CC[C@]5(C(=O)NCCCCCCCCCCC(=O)NCC(=O)O)CC[C@@]4(C)[C@]3(C)CC[C@H]2C1(C)C` stands more than 50 µM. In the case of `CC1(C)CC[C@]2(C(=O)NCCCCCCCCCCC(=O)NCC(=O)O)CC[C@]3(C)C(=CC[C@@H]4[C@@]5(C)CC[C@H](OC(=O)CCCC(=O)O)C(C)(C)[C@@H]5CC[C@]43C)[C@@H]2C1`, the IC50 was more than 50 µM.

In the case of `CC1(C)CC[C@]2(C(=O)NCCCCCCCCCCC(=O)NCC(=O)O)CC[C@]3(C)C(=CC[C@@H]4[C@@]5(C)CC[C@H](OC(=O)c6ccccc6C(=O)O)C(C)(C)[C@@H]5CC[C@]43C)[C@@H]2C1`, the IC50 worked out at 2.3 µM. Under `CCC(=O)O[C@H]1CC[C@]2(C)[C@H]3CC=C4[C@@H]5CC(C)(C)CC[C@]5(C(=O)NCCCCCCCCCCC(=O)N[C@@H](C)C(=O)O)CC[C@@]4(C)[C@]3(C)CC[C@H]2C1(C)C` stands more than 50 µM. In turn, `CCCCCC(=O)O[C@H]1CC[C@]2(C)[C@H]3CC=C4[C@@H]5CC(C)(C)CC[C@]5(C(=O)NCCCC(=O)N[C@@H](C)C(=O)O)CC[C@@]4(C)[C@]3(C)CC[C@H]2C1(C)C` showed an IC50 of more than 50 µM. As for `C[C@H](NC(=O)CCCNC(=O)[C@]12CCC(C)(C)C[C@H]1C1=CC[C@@H]3[C@@]4(C)CC[C@H](OC(=O)CCC(=O)O)C(C)(C)[C@@H]4CC[C@@]3(C)[C@]1(C)CC2)C(=O)O`, the figure is more than 50 µM; as for `CCCC(=O)O[C@H]1CC[C@]2(C)[C@H]3CC=C4[C@@H]5CC(C)(C)CC[C@]5(C(=O)NCCCCCC(=O)N[C@@H](C)C(=O)O)CC[C@@]4(C)[C@]3(C)CC[C@H]2C1(C)C`, 40 µM; as for `CCC(=O)O[C@H]1CC[C@]2(C)[C@H]3CC=C4[C@@H]5CC(C)(C)CC[C@]5(C(=O)NCCCC(=O)N[C@@H](C)C(=O)O)CC[C@@]4(C)[C@]3(C)CC[C@H]2C1(C)C`, more than 50 µM. Under `CCC(=O)O[C@H]1CC[C@]2(C)[C@H]3CC=C4[C@@H]5CC(C)(C)CC[C@]5(C(=O)NCCCCCCCCCCC(=O)NCC(=O)O)CC[C@@]4(C)[C@]3(C)CC[C@H]2C1(C)C` stands more than 50 µM; under `CCCCCC(=O)O[C@H]1CC[C@]2(C)[C@H]3CC=C4[C@@H]5CC(C)(C)CC[C@]5(C(=O)NCCCCCCCCCCC(=O)N[C@@H](C)C(=O)O)CC[C@@]4(C)[C@]3(C)CC[C@H]2C1(C)C`, more than 50 µM. As to `C[C@H](NC(=O)CCCCCCCCCCNC(=O)[C@]12CCC(C)(C)C[C@H]1C1=CC[C@@H]3[C@@]4(C)CC[C@H](OC(=O)CCC(=O)O)C(C)(C)[C@@H]4CC[C@@]3(C)[C@]1(C)CC2)C(=O)O`, the IC50 was more than 50 µM. `CC1(C)CC[C@]2(C(=O)NCCCCCCCCCCC(=O)NCC(=O)O)CC[C@]3(C)C(=CC[C@@H]4[C@@]5(C)CC[C@H](OC(=O)CCC(=O)O)C(C)(C)[C@@H]5CC[C@]43C)[C@@H]2C1`: the IC50 is more than 50 µM.

Compound `CCC(=O)O[C@H]1CC[C@]2(C)[C@H]3CC=C4[C@@H]5CC(C)(C)CC[C@]5(C(=O)NCCCC(=O)N[C@H](C(=O)O)C(C)C)CC[C@@]4(C)[C@]3(C)CC[C@H]2C1(C)C` came in with an IC50 of more than 50 µM. Regarding `CCCCCC(=O)O[C@H]1CC[C@]2(C)[C@H]3CC=C4[C@@H]5CC(C)(C)CC[C@]5(C(=O)NCCCCCCCCCCC(=O)NCC(=O)O)CC[C@@]4(C)[C@]3(C)CC[C@H]2C1(C)C`, the IC50 was more than 50 µM. As for `C[C@H](NC(=O)CCCCCCCCCCNC(=O)[C@]12CCC(C)(C)C[C@H]1C1=CC[C@@H]3[C@@]4(C)CC[C@H](OC(=O)CCCC(=O)O)C(C)(C)[C@@H]4CC[C@@]3(C)[C@]1(C)CC2)C(=O)O`, the figure is more than 50 µM; as for `C[C@H](NC(=O)CCCNC(=O)[C@]12CCC(C)(C)C[C@H]1C1=CC[C@@H]3[C@@]4(C)CC[C@H](OC(=O)CC(C)(C)CC(=O)O)C(C)(C)[C@@H]4CC[C@@]3(C)[C@]1(C)CC2)C(=O)O`, more than 50 µM.
